Source: ChEMBL document CHEMBL1151757, “Synthesis, radiosynthesis, and biological evaluation of fluorine-18-labeled 2beta-carbo(fluoroalkoxy)-3beta-(3'-((Z)-2-haloethenyl)phenyl)nortropanes: candidate radioligands for in vivo imaging of the serotonin transporter with positron emission tomography” (J Med Chem, 2008)

Columns and labels:
Caudate [1] = test: Drug uptake in anesthetized cynomolgus monkey brain caudate after 18.5 mins postinjection; type: ADME, organism-based, Macaca fascicularis, Caudate nucleus; conditions: in vivo
[2] = Ratio of drug uptake in midbrain to cerebellum in anesthetized cynomolgus monkey after 185 mins postinjection; type: ADME, organism-based, Macaca fascicularis; conditions: in vivo
Thalamus [3] = test: Drug uptake in anesthetized cynomolgus monkey brain thalamus after 3.5 mins postinjection; type: ADME, organism-based, Macaca fascicularis; design: unit not given here; conditions: in vivo
Caudate [4] = test: Drug uptake in anesthetized cynomolgus monkey brain caudate after 2.5 mins postinjection; type: ADME, organism-based, Macaca fascicularis, Caudate nucleus; conditions: in vivo
Medulla [5] = test: Drug uptake in anesthetized cynomolgus monkey brain medulla after 115 mins postinjection; type: ADME, organism-based, Macaca fascicularis; conditions: in vivo
[6] = Drug uptake in anesthetized cynomolgus monkey brain cerebellum after 115 mins postinjection; type: ADME, organism-based, Macaca fascicularis; conditions: in vivo
Thalamus [7] = test: Drug uptake in anesthetized cynomolgus monkey brain thalamus after 165 mins postinjection; type: ADME, organism-based, Macaca fascicularis; design: unit not given here; conditions: in vivo, 2.75 h
Midbrain [8] = test: Drug uptake in anesthetized cynomolgus monkey brain midbrain after 12.5 mins postinjection; type: ADME, organism-based, Macaca fascicularis; design: unit not given here; conditions: in vivo
Midbrain [9] = test: Drug uptake in anesthetized cynomolgus monkey brain midbrain after 165 mins postinjection; type: ADME, organism-based, Macaca fascicularis; conditions: in vivo, 2.75 h
[10] = Drug uptake in anesthetized cynomolgus monkey brain cerebellum after 95 mins postinjection; type: ADME, organism-based, Macaca fascicularis; conditions: in vivo
[11] = Drug uptake in anesthetized cynomolgus monkey brain occipital lobe after 1.5 mins postinjection; type: ADME, organism-based, Macaca fascicularis; conditions: in vivo, 0.025 h
[12] = Ratio of drug uptake in medulla to cerebellum in anesthetized cynomolgus monkey after 85 mins postinjection; type: ADME, organism-based, Macaca fascicularis; conditions: in vivo
[13] = Ratio of drug uptake in frontal lobe to cerebellum in anesthetized cynomolgus monkey after 125 mins postinjection; type: ADME, organism-based, Macaca fascicularis; conditions: in vivo
Pons [14] = test: Drug uptake in anesthetized cynomolgus monkey brain pons after 145 mins postinjection; type: ADME, organism-based, Macaca fascicularis; conditions: in vivo
[15] = Drug uptake in anesthetized cynomolgus monkey brain frontal lobe after 95 mins postinjection; type: ADME, organism-based, Macaca fascicularis; conditions: in vivo
Medulla [16] = test: Drug uptake in anesthetized cynomolgus monkey brain medulla after 1.5 mins postinjection; type: ADME, organism-based, Macaca fascicularis; conditions: in vivo, 0.025 h
[17] = Drug uptake in anesthetized cynomolgus monkey brain frontal lobe after 195 mins postinjection; type: ADME, organism-based, Macaca fascicularis; conditions: in vivo, 3.25 h
[18] = Ratio of drug uptake in thalamus to cerebellum in anesthetized cynomolgus monkey after 27.5 mins postinjection; type: ADME, organism-based, Macaca fascicularis; conditions: in vivo
Medulla [19] = test: Drug uptake in anesthetized cynomolgus monkey brain medulla after 2.5 mins postinjection; type: ADME, organism-based, Macaca fascicularis; conditions: in vivo
Pons [20] = test: Drug uptake in anesthetized cynomolgus monkey brain pons after 105 mins postinjection; type: ADME, organism-based, Macaca fascicularis; conditions: in vivo, 1.75 h
[21] = Ratio of drug uptake in midbrain to cerebellum in anesthetized cynomolgus monkey after 125 mins postinjection; type: ADME, organism-based, Macaca fascicularis; conditions: in vivo
Caudate [22] = test: Drug uptake in anesthetized cynomolgus monkey brain caudate after 225 mins postinjection; type: ADME, organism-based, Macaca fascicularis, Caudate nucleus; conditions: in vivo, 3.75 h
[23] = Drug uptake in anesthetized cynomolgus monkey brain cerebellum after 0.5 mins postinjection; type: ADME, organism-based, Macaca fascicularis; conditions: in vivo
Putamen [24] = test: Drug uptake in anesthetized cynomolgus monkey brain putamen after 4.5 mins postinjection; type: ADME, organism-based, Macaca fascicularis; design: unit not given here; conditions: in vivo, 0.075 h
[25] = Ratio of drug uptake in pons to cerebellum in anesthetized cynomolgus monkey after 195 mins postinjection; type: ADME, organism-based, Macaca fascicularis; conditions: in vivo, 3.25 h
Putamen [26] = test: Drug uptake in anesthetized cynomolgus monkey brain putamen after 18.5 mins postinjection; type: ADME, organism-based, Macaca fascicularis; design: unit not given here; conditions: in vivo
Caudate [27] = test: Drug uptake in anesthetized cynomolgus monkey brain caudate after 145 mins postinjection; type: ADME, organism-based, Macaca fascicularis, Caudate nucleus; conditions: in vivo
Caudate [28] = test: Drug uptake in anesthetized cynomolgus monkey brain caudate after 115 mins postinjection; type: ADME, organism-based, Macaca fascicularis, Caudate nucleus; conditions: in vivo
Medulla [29] = test: Drug uptake in anesthetized cynomolgus monkey brain medulla after 95 mins postinjection; type: ADME, organism-based, Macaca fascicularis; conditions: in vivo
[30] = Ratio of drug uptake in pons to cerebellum in anesthetized cynomolgus monkey after 125 mins postinjection; type: ADME, organism-based, Macaca fascicularis; conditions: in vivo
Thalamus [31] = test: Drug uptake in anesthetized cynomolgus monkey brain thalamus after 195 mins postinjection; type: ADME, organism-based, Macaca fascicularis; conditions: in vivo, 3.25 h
Caudate [32] = test: Drug uptake in anesthetized cynomolgus monkey brain caudate after 55 mins postinjection; type: ADME, organism-based, Macaca fascicularis, Caudate nucleus; conditions: in vivo
[33] = Drug uptake in anesthetized cynomolgus monkey brain frontal lobe after 27.5 mins postinjection; type: ADME, organism-based, Macaca fascicularis; conditions: in vivo
Medulla [34] = test: Drug uptake in anesthetized cynomolgus monkey brain medulla after 225 mins postinjection; type: ADME, organism-based, Macaca fascicularis; conditions: in vivo, 3.75 h
[35] = Ratio of drug uptake in thalamus to cerebellum in anesthetized cynomolgus monkey after 135 mins postinjection; type: ADME, organism-based, Macaca fascicularis; conditions: in vivo, 2.25 h
Caudate [36] = test: Drug uptake in anesthetized cynomolgus monkey brain caudate after 175 mins postinjection; type: ADME, organism-based, Macaca fascicularis, Caudate nucleus; conditions: in vivo
[37] = Ratio of drug uptake in putamen to cerebellum in anesthetized cynomolgus monkey after 45 mins postinjection; type: ADME, organism-based, Macaca fascicularis; conditions: in vivo, 0.75 h
[38] = Ratio of drug uptake in midbrain to cerebellum in anesthetized cynomolgus monkey after 9.5 mins postinjection; type: ADME, organism-based, Macaca fascicularis; conditions: in vivo
[39] = Ratio of drug uptake in midbrain to cerebellum in anesthetized cynomolgus monkey after 235 mins postinjection; type: ADME, organism-based, Macaca fascicularis; conditions: in vivo
Thalamus [40] = test: Drug uptake in anesthetized cynomolgus monkey brain thalamus after 95 mins postinjection; type: ADME, organism-based, Macaca fascicularis; design: unit not given here; conditions: in vivo
[41] = Ratio of drug uptake in midbrain to cerebellum in anesthetized cynomolgus monkey after 135 mins postinjection; type: ADME, organism-based, Macaca fascicularis; conditions: in vivo, 2.25 h
Pons [42] = test: Drug uptake in anesthetized cynomolgus monkey brain pons after 0.5 mins postinjection; type: ADME, organism-based, Macaca fascicularis; conditions: in vivo
Thalamus [43] = test: Drug uptake in anesthetized cynomolgus monkey brain thalamus after 22.5 mins postinjection; type: ADME, organism-based, Macaca fascicularis; design: unit not given here; conditions: in vivo, 0.375 h
Pons [44] = test: Drug uptake in anesthetized cynomolgus monkey brain pons after 45 mins postinjection; type: ADME, organism-based, Macaca fascicularis; conditions: in vivo, 0.75 h
Thalamus [45] = test: Drug uptake in anesthetized cynomolgus monkey brain thalamus after 1.5 mins postinjection; type: ADME, organism-based, Macaca fascicularis; conditions: in vivo, 0.025 h
[46] = Ratio of drug uptake in pons to cerebellum in anesthetized cynomolgus monkey after 0.5 mins postinjection; type: ADME, organism-based, Macaca fascicularis; conditions: in vivo
[47] = Ratio of drug uptake in putamen to cerebellum in anesthetized cynomolgus monkey after 75 mins postinjection; type: ADME, organism-based, Macaca fascicularis; conditions: in vivo, 1.25 h
[48] = Drug uptake in anesthetized cynomolgus monkey brain frontal lobe after 45 mins postinjection; type: ADME, organism-based, Macaca fascicularis; conditions: in vivo, 0.75 h
[49] = Drug uptake in anesthetized cynomolgus monkey brain frontal lobe after 75 mins postinjection; type: ADME, organism-based, Macaca fascicularis; conditions: in vivo, 1.25 h
Caudate [50] = test: Drug uptake in anesthetized cynomolgus monkey brain caudate after 15.5 mins postinjection; type: ADME, organism-based, Macaca fascicularis, Caudate nucleus; conditions: in vivo
[51] = Ratio of drug uptake in midbrain to cerebellum in anesthetized cynomolgus monkey after 18.5 mins postinjection; type: ADME, organism-based, Macaca fascicularis; conditions: in vivo
[52] = Ratio of drug uptake in caudate to cerebellum in anesthetized cynomolgus monkey after 0.5 mins postinjection; type: ADME, organism-based, Macaca fascicularis; conditions: in vivo
[53] = Ratio of drug uptake in pons to cerebellum in anesthetized cynomolgus monkey after 105 mins postinjection; type: ADME, organism-based, Macaca fascicularis; conditions: in vivo, 1.75 h
[54] = Drug uptake in anesthetized cynomolgus monkey brain cerebellum after 1.5 mins postinjection; type: ADME, organism-based, Macaca fascicularis; conditions: in vivo, 0.025 h
Caudate [55] = test: Drug uptake in anesthetized cynomolgus monkey brain caudate after 195 mins postinjection; type: ADME, organism-based, Macaca fascicularis, Caudate nucleus; conditions: in vivo, 3.25 h
Putamen [56] = test: Drug uptake in anesthetized cynomolgus monkey brain putamen after 145 mins postinjection; type: ADME, organism-based, Macaca fascicularis; conditions: in vivo
Midbrain [57] = test: Drug uptake in anesthetized cynomolgus monkey brain midbrain after 6.5 mins postinjection; type: ADME, organism-based, Macaca fascicularis; design: unit not given here; conditions: in vivo
[58] = Drug uptake in anesthetized cynomolgus monkey brain occipital lobe after 45 mins postinjection; type: ADME, organism-based, Macaca fascicularis; conditions: in vivo, 0.75 h
Midbrain [59] = test: Drug uptake in anesthetized cynomolgus monkey brain midbrain after 215 mins postinjection; type: ADME, organism-based, Macaca fascicularis; conditions: in vivo
Midbrain [60] = test: Drug uptake in anesthetized cynomolgus monkey brain midbrain after 65 mins postinjection; type: ADME, organism-based, Macaca fascicularis; design: unit not given here; conditions: in vivo
Medulla [61] = test: Drug uptake in anesthetized cynomolgus monkey brain medulla after 135 mins postinjection; type: ADME, organism-based, Macaca fascicularis; conditions: in vivo, 2.25 h
[62] = Drug uptake in anesthetized cynomolgus monkey brain cerebellum after 175 mins postinjection; type: ADME, organism-based, Macaca fascicularis; conditions: in vivo
[63] = Ratio of drug uptake in putamen to cerebellum in anesthetized cynomolgus monkey after 155 mins postinjection; type: ADME, organism-based, Macaca fascicularis; conditions: in vivo
Pons [64] = test: Drug uptake in anesthetized cynomolgus monkey brain pons after 1.5 mins postinjection; type: ADME, organism-based, Macaca fascicularis; conditions: in vivo, 0.025 h
Thalamus [65] = test: Drug uptake in anesthetized cynomolgus monkey brain thalamus after 225 mins postinjection; type: ADME, organism-based, Macaca fascicularis; design: unit not given here; conditions: in vivo, 3.75 h
Pons [66] = test: Drug uptake in anesthetized cynomolgus monkey brain pons after 75 mins postinjection; type: ADME, organism-based, Macaca fascicularis; conditions: in vivo, 1.25 h
[67] = Drug uptake in anesthetized cynomolgus monkey brain frontal lobe after 12.5 mins postinjection; type: ADME, organism-based, Macaca fascicularis; conditions: in vivo

O=C(OCCC[18F])C1C2CCC(CC1c1cccc(/C=C\I)c1)N2 (configuration not stated)
Drug uptake (Caudate [1]): 3.38
Ratio [2]: 1.9
Drug uptake (Thalamus [3]): 1.44
Drug uptake (Caudate [4]): 0.64
Drug uptake (Medulla [5]): 4.59
Drug uptake [6]: 3.1
Drug uptake (Thalamus [7]): 3.67
Drug uptake (Midbrain [8]): 4.11
Drug uptake (Midbrain [9]): 4.26
Drug uptake [10]: 3.46
Drug uptake [11]: 0.19
Ratio [12]: 1.3
Ratio [13]: 0.9
Drug uptake (Pons [14]): 3.74
Drug uptake [15]: 2.68
Drug uptake (Medulla [16]): 0.35
Drug uptake [17]: 1.96
Ratio [18]: 1
Drug uptake (Medulla [19]): 0.84
Drug uptake (Pons [20]): 4.01
Ratio [21]: 1.6
Drug uptake (Caudate [22]): 2.46
Drug uptake [23]: 0.01
Drug uptake (Putamen [24]): 2.31
Ratio [25]: 1.5
Drug uptake (Putamen [26]): 4.42
Drug uptake (Caudate [27]): 3.24
Drug uptake (Caudate [28]): 3.61
Drug uptake (Medulla [29]): 4.93
Ratio [30]: 1.4
Drug uptake (Thalamus [31]): 3.2
Drug uptake (Caudate [32]): 4.09
Drug uptake [33]: 2.72
Drug uptake (Medulla [34]): 3.6
Ratio [35]: 1.5
Drug uptake (Caudate [36]): 2.83
Ratio [37]: 1.1
Ratio [38]: 0.9
Ratio [39]: 1.9
Drug uptake (Thalamus [40]): 4.52
Ratio [41]: 1.7
Drug uptake (Pons [42]): 0.01
Drug uptake (Thalamus [43]): 4.46
Drug uptake (Pons [44]): 4.5
Drug uptake (Thalamus [45]): 0.24
Ratio [46]: 1.7
Ratio [47]: 1.3
Drug uptake [48]: 2.84
Drug uptake [49]: 2.76
Drug uptake (Caudate [50]): 3.34
Ratio [51]: 1
Ratio [52]: 1
Ratio [53]: 1.2
Drug uptake [54]: 0.27
Drug uptake (Caudate [55]): 2.74
Drug uptake (Putamen [56]): 3.91
Drug uptake (Midbrain [57]): 3.41
Drug uptake [58]: 4.09
Drug uptake (Midbrain [59]): 3.69
Drug uptake (Midbrain [60]): 4.97
Drug uptake (Medulla [61]): 4.5
Drug uptake [62]: 2.37
Ratio [63]: 1.6
Drug uptake (Pons [64]): 0.21
Drug uptake (Thalamus [65]): 2.83
Drug uptake (Pons [66]): 4.34
Drug uptake [67]: 2.24
